Like-named read-outs stand apart in the source and are kept apart here.
B1: Aspergillus niger pentose transporter protein An03g02190 (2190), FIG. 8A (Aspergillus niger CBS 513.88) (protein)
chain: MPRKRPQDELNGDVLQQEAQATGPNDQKSEEGIVDTPIPLLTWRSFLMGIFVSMGGFLFGYDTGQISGFLEMPNFLQRYGQQQADGTYYFSNARSGLIVALLSIGTLIGALIAAPIADRVGRKWSISGWSAMVCVGITIQISSPFGKWYQVAMGRWVAGLGVGALSLLVPMYQAETGPRHIRGSLVSTYQLFITLGIFVANCINFGTEARNDTGSWRIPMGITYIWAMILGFGIALFPESARYDYRHGREAKAARTLSRMYGIPENHRMLKLEIGEIRQKFVEEQERGEITWSHLLHAPRMKYRVAVGVALQALQQLTGANYFFYYGTTIFRGAGISNSYVTQMILGGVNFGTTFLGLYLIENYGRRRSLITGALWMFVCFMVFASVGHFSLDHENPERTHTAGVVMVVFACLFILGFASTWGPMVWTIIAELYPSEFRARAMSLATASNWLWNFLLAFFTPFITSAIDFRLGYVFAGCLFLAAGLVYVAVIEGRGRTLEEIDTMYVMKVPPWKSSKYVFPDIDPYDRRGSILSKAGASHIPQVSGGNETLSPHTTEV

Tests used:
[1] = tested on: S. cerevisiae strain expressing the 1100 (An11g01100) transporter; experiment: toxic effect of pentose on yeast growth, strain expressing 1100 transporter; assay type: cell-based, Saccharomyces cerevisiae; settings: 50 mM maltose, YNB + 2% agar + 0.5 mM CuSO4; also: key: ++++: very good growth; +++: good growth; ++: poor growth; +: very poor growth; +/−: growth barely visible; −: no growth
Procedure: (§1) Yeast strain EB.VW4000 was grown on YP [1% (w/v) Bacto yeast extract/2% (w/v) Bacto peptone]with 2% (w/v) maltose at 30° C. (ref strain). Other S. cerevisiae strains used were derived from strain EB.VW4000, and were transformed with plasmids based on pYEX-BX (Clontech). Plasmid transformations of yeast cells were carried out according to the quick and easy TRAFO protocol [TRAFO reference]. Yeast strains were grown at 30° C. in a rotary shaker at 250 rev./min, in YNB[0.67% (w/v) Difco yeast nitrogen base] supplemented with 0.1% (w/v) casamino acids and 0.2 mg/l tryptophan, 20 mg/l leucine, 20 mg/l histidine, 122 mg/l uridine. The carbon sources used were as stated in the text. Unless stated otherwise, 0.5 mM CuSO4 was used to induce expression from the CUP1 promoter.
(§2) Yeast strains provided with an exemplary novel pentose transporter were studied with respect to the effect of growth in the presence of pentose sugars.

[2] = tested on: S. cerevisiae strain expressing the 0560 (An06g00560) transporter; experiment: toxic effect of pentose on yeast growth, strain expressing 0560 transporter; assay type: cell-based, Saccharomyces cerevisiae; settings: 50 mM maltose, YNB + 2% agar + 0.5 mM CuSO4; also: key: ++++: very good growth; +++: good growth; ++: poor growth; +: very poor growth; +/−: growth barely visible; −: no growth
Procedure: as §1, §2

[3] = tested on: Aspergillus niger pentose transporter protein An03g01620 (1620), FIG. 3A; experiment: zero trans-influx sugar transport assay (14C-labelled pentose uptake, transporter expressed in S. cerevisiae); assay type: biochemical
Text: (§3) Cells were kept on ice until required.

[4] = tested on: Aspergillus niger pentose transporter protein An06g00560 (0560), FIG. 1A; experiment: as above; assay type: biochemical; settings: read-out: Km for L-arabinose, 5 s, 30° C., pH 6.5
Text: as §3

[5] = tested on: Aspergillus niger pentose transporter protein An08g01720 (1720), FIG. 4A; experiment: as above; assay type: biochemical
Text: as §3

[6] = substrate: OC1OC[C@@H](O)[C@H](O)[C@H]1O; experiment: cells, lysate or membranes; settings: other: zero trans-influx, 5 s, 30° C., pH 6.5
[7] = substrate: OC1OC[C@H](O)[C@H](O)[C@H]1O; experiment: cells, lysate or membranes; settings: other: zero trans-influx, 5 s, 30° C., pH 6.5

Molecule	growth ([1]; 25 mM pentose)	growth ([1]; 50 mM pentose)	growth ([1]; 100 mM pentose)	growth ([1]; 500 mM pentose)	growth ([2]; 25 mM pentose)	growth ([2]; 50 mM pentose)	growth ([2]; 100 mM pentose)	growth ([2]; 500 mM pentose)	Km ([3]; read-out: Km for L-arabinose, 5 s, 30° C., pH 6.5) [mM]	Km [4] [mM]	higher affinity for L-arabinose than An06g00560 ([5]; Km 4.9 mM compared to 75 mM)	Km ([5]; read-out: Km for L-arabinose, zero trans-influx, 5 s, 30° C., pH 6.5) [mM]	Km ([3]; read-out: Km for D-xylose, 5 s, 30° C., pH 6.5) [mM]	Km [6] [mM mM]	Km [7] [mM mM]
OC1OC[C@H](O)[C@H](O)[C@H]1O (stereo partly drawn) [L-arabinose]	+++	++	+	+/−	+	+/−	+/−	−	7.5	75	approximately 15 fold	4.9			
OC1OC[C@@H](O)[C@H](O)[C@H]1O (stereo partly drawn) [D-xylose]	++	+	+	+	+++	++	++	++					23		
B1														9	2.6

Reference: US20120295321A1, “Pentose Transporters and Uses Thereof” (Universiteit Utrecht Holding B.V., priority 2009, published 2012)
